Assay results taken from patent US11433087B2, “Anti-tumor compound with high CD169 affinity, method thereof, and use thereof” (Xiamen Nuokangde Biological Technology Co., Ltd., priority 2017, dated 2022).

Experiments:
B16F10 cells [1] = experiment: Phagocytic effects of macrophages (BMDM) on tumor cells, lactate dehydrogenase cytotoxicity test kit; assay type: cell-based, mouse; conditions: BMDM and B16F10 cells 5:1; compared with control group medium added with Neu5Ac; FIG. 5
Experimental: Taking out bone marrow of 10 week old mice, adding with a solution of potassium ammonium chloride (ACK), and then culturing cells of the bone marrow in an Iscove's modified dulbecco medium (IMDM) comprising 10% (volume ratio) fetal bovine serum (FBS) and 10 ng/mL macrophage […] stimulating factor to obtain bone marrow derived macrophages (BMDM). Culturing BMDM and B16F10 cells of a ratio of 5:1 respectively in an experimental group medium and a control group medium. Adding TCC-Neu5Ac to the experimental group medium, adding Neu5Ac of the same volume to the control group medium, detecting by Lactate dehydrogenase cytotoxicity test kit, selecting a 490 nm absorption peak in a microplate reader, and converting to phagocytic killing efficiency.

B16F10 cells [2] = experiment: Tumor metastasis analysis model in mice; assay type: in vivo, B6 mice (C57BL/6); conditions: B16F10 injected from tail veins in C57BL/6 mice; 200 μL, 100 μmol, tail vein every two days, 15 days; versus 100 μmol natural sialic acid (Neu5Ac); FIG. 14
Experimental: (§1) Culturing B16F10 cells in a 10 cm cell culture dish to a density of 80%, digesting with 2 mL tyrisin for 90 seconds, neutralizing with 2 mL medium, centrifuging under 300 g for 3 minutes, rinsing with PBS repeatedly, centrifuging once to remove any residual medium, and adding PBS to resuspend and count an amount of the B16F10 cells.
Injecting 1 million of the B16F10 cells into B6 mice (C57BL/6) from tail veins for preparing a tumor metastasis analysis model. Then, injecting 200 μL of an aqueous solution comprising the 100 μmol of the anti-tumor compound with high CD169 affinity of the present disclosure every two days from tail veins as an experimental group 3, and injecting water solution with the same volume comprising 100 μmol of natural sialic acid (Neu5Ac) as a control group 3. After 15 days, removing hair from tumor areas of the B6 mice and taking pictures. Then, taking out tumors from the B6 mice and taking pictures for analysis. An ordinate position of a black solid circle indicates a number of the tumors transferred to lungs of a mouse of the experimental group 3. An ordinate position of one black solid square indicates a number of the tumors transferred to lungs of a mouse of the control group 3. It can be seen from FIG. 14 that the number of the tumors transferred to the lungs in the experimental group 3 is far lower than that in the control group 3. […]

B16F10 cells [3] = experiment: Anti-tumor effects in tumor-bearing mice injected with the compound; assay type: in vivo, mice B6 (C57BL/6); conditions: subcutaneous B16F10 in C57BL/6 mice; tail vein injection of 100 mL PBS, 100 μmol, every two days, 15 days; versus 100 μmol natural sialic acid; FIG. 6-9
Experimental: Culturing B16F10 cells in a 10 cm cell culture dish to a density of 80%;
Digesting with 2 mL tyrisin for 90 seconds, neutralizing with 2 mL medium, centrifuging under 300 g for 3 minutes, rinsing with PBS repeatedly, centrifuging once to remove any remaining medium, and adding PBS to resuspend and count an amount of the B16F10 cells;
Injecting subcutaneously 1 million of the B16F10 cells into mice B6 (C57BL/6) for tumor planting, and then injecting […] PBS comprising the anti-tumor compound of the present disclosure with a concentration of 100 μmol from a tail vein of mice every two days as an experimental group 1;
Injecting PBS of the same volume comprising 100 μmol natural sialic acid as a control group 1, and the other conditions of the control group 1 are the same as the experimental group 1; and
After 15 days, removing hair from tumor areas of the mice, taking pictures (as shown in FIG. 6 and FIG. 7), taking out tumors from the mice, and taking pictures for analysis.

B16F10 cells [4] = experiment: Anti-tumor effects in tumor-bearing mice orally administrated with the compound; assay type: in vivo, B6 mice (C57BL/6); conditions: subcutaneous B16F10 in C57BL/6 mice; oral 200 μL aqueous solution, 100 μmol, daily, 15 days; versus natural sialic acid; FIG. 10-13
Experimental: as §1, with “medium,” for “medium, and”, “cells, and injecting subcutaneously 1 million of the B16F10 cells into the of B6 mice (C57BL/6) for tumor planting;” for “cells.”
Feeding 200 μL of an aqueous solution comprising the 100 μmol of the anti-tumor compound with high CD169 affinity of the present disclosure daily as an experimental group 2;
Feeding water solution with the same volume comprising natural sialic acid as a control group 2; and
After 15 days, removing hair from tumor areas of the B6 mice, taking pictures, taking out tumors from the B6 mice, and taking pictures for analysis.

[5] = tested on: human malignant glioma cells (U87); experiment: Toxicity in cells (counting dead cells, cell survival rate); assay type: cell-based; conditions: U87, different concentrations 0-100 μmol, 24 hours; FIG. 4
Experimental: Culturing human malignant glioma cells (U87) in the constant temperature incubator containing 5% CO2 at 37° C., and a seventh medium of the human malignant glioma cells is DMEM containing 10% fetal bovine serum;
Transferring the human malignant glioma cells to a confocal cell culture dish, culturing to a density of 50%, removing the seventh medium, adding an eighth medium comprising TCC-Neu5Ac of different concentrations from 0 to 100 μmol (100 μM), and further culturing for 24 hours; and
Removing the eighth medium comprising TCC-Neu5Ac, washing carefully with PBS for three times, adding a ninth medium, and counting dead cells of the human malignant glioma cells.
Counting results of the dead cells are shown in FIG. 4, wherein abscissa represents different concentrations of TCC Neu5Ac in the eight medium, and ordinate represents a cell survival rate of the human malignant glioma cells. […] Therefore, the anti-tumor compound with high CD169 affinity of the present disclosure has extremely low toxicity in the cells and has potential ability for human tumor treatment.

Structure (SMILES): CC(=O)N[C@@H]1C(O)C[C@](O)(C(=O)O)OC1C(O)C(O)CNC(=O)c1cc2c(s1)-c1ccccc1OC2 (some centres unmarked) [TCC-Neu5Ac, 9-benzopyranothiophene-n-acetylneuraminic acid monosaccharide]
- killing rate of phagocytes to tumors (B16F10 cells [1]): significantly higher
- number of the tumors transferred to the lungs (B16F10 cells [2]): far lower
- sizes of the tumors (B16F10 cells [3]): significantly smaller
- sizes of the tumors (B16F10 cells [4]): significantly smaller
- cell survival rate of the human malignant glioma cells [5]: does not differ much
